Values quoted from earlier work, collected in patent US20250082708A1, “HERBAL COMPOSITION FOR USE IN THE TREATMENT OR PREVENTION OF POSTPARTUM DEPRESSION” (CRISTALFARMA S.R.L., priority 2022, published 2025).

System: women with postpartum depression
Settings: 8 weeks treatment; Amini et al.

## vitamin D
  reduction of EPDS questionnaire score with respect to baseline, versus placebo control group: greater reduction
